Measured values: patent US20030199449A1, “Combination of ablation and controlled drug delivery for the treatment of cancer” (priority 2002, published 2003)

Assays:
[1] = In-vitro release of 5-FU from poly(CPP:SA) implants; assay type: physicochemical; conditions: 37° C., 120 rpm
Experimental: The drug 5-fluorouracil was analyzed by HPLC using a Regis C-18 reverse phase column. The mobile phase was deionized water at a flow rate of 0.6 ml/min and the injection volume was10 μl. The detector was set to monitor 266 nm. Calibration standards for the method were prepared as follows: A mass of 13 mg of 5-FU was dissolved in deionized water in a 50 ml volumetric flask to make a 2.00 mM stock solution. Sequential dilutions of the stock solution give standard solutions of 1.00, 0.200, 0.0500, 0.0100 and 0.00100 mM, respectively. The standards for the metabolite 5-FUR were similarly prepared at the concentrations of 2.00, 1.00, 0.200, 0.0500, 0.0100 and 0.00100 mM, respectively. The HPLC peak area of 5-FU and 5-FUR varied linearly with concentrations in the standard test range of 0.001-2 mM.
To measure in-vitro drug release of 5-F U from the implants, solid samples were pre-weighed and placed in a sterile 50-ml conical tubes filled with 20 ml of either phosphate buffered saline (PBS) or fetal bovine serum (FBS). The tubes were placed on the Gyromax 929 shaker adjusted to 37° C. and 120 rpm. Periodically, 0.1 ml of the solutions was transferred into a vial and diluted 20 times with deionized water. Aliquots of 0.1 ml of fresh PBS or FBS was added to the conical tubes each time to maintain a constant volume. […]

[2] = Local drug concentration distribution in normal (unablated) rat liver after implantation of 5-FU rod; conditions: 24 h, insertion point vs periphery
[3] = in vivo; conditions: RF ablated liver; for concentration at 24 h: male, Sprague Dawley, rat, in vivo, 5-FU concentration in liver tissue
Text: The medial lobe of each liver was exposed through a small midline incision.
For the ablation procedure, the livers were placed on a wire mesh grounding pad and a saline soaked sponge. Ablation was accomplished using a 200-W radiofrequency generator (model CTRF-A, Radionics, Burlington, Mass.) using a 19-gauge needle electrode (model PE-D(10)(2) Radionics , Burlington, Mass.). Ablation was initiated by inserting the needle electrode into a needle tract made with a 23-gauge needle in the center of the lobe. The electrode was inserted to a depth of approximately 8-mm. The hepatic tissue exposed to the radiofrequency current was raised to a temperature of 90° C. for 3 min. […] After the electrode was removed, a 5-FU rod was placed in the probe tract and a fat pad was sewn over the top.

[4] = Body weight change after RFA plus 5-FU rods in VX-2 tumor rabbits; assay type: in vivo, New Zealand white rabbits; conditions: RFA plus 5-FU subgroup, last 14 days following RFA
Experimental: Male New Zealand white rabbits (−3 kg) were used and were cared for in accordance with the Case Western Reserve University animal research center regulations. The rabbits were anesthetized using a combination of xylazine (5 mg/kg body weight BW) and ketamine (50 mg/kg BW), acepromazine (2 mg/kg), and atropine (0.2 mg/kg) given by i.m. injection. The abdomen was shaved and cleaned with povidone-iodine solution (Betadine) and 0.5 ml of Marcaine was administered into the skin at the incision site. A small midline incision was made and the medial lobe of the liver was exposed and exteriorized. The capsule of the medial lobe was punctured with a scalpel blade and a small piece of VX-2 tumor (1 mm^3), which was propagated in another rabbit and stored in liquid nitrogen for later use, was inserted into the liver parenchyma. A small piece of fat was sutured over the implant site. The abdominal muscles were closed with suture and the skin was closed with subcutaneous hidden sutures. During the recovery period, all animals received buprenophrine (Buprenex, 0.5 mg/kg, i.m.), soon after surgery and once again 24 hrs later for pain. If the animals were later perceived to be in pain, additional buprenophrine was given as needed. The rabbits also received a subcutaneous injection of 25 ml of 0.9% saline during recovery and 24 hrs later. […]

[5] = system: neoplastic tissue; conditions: reported; cited from earlier work
[6] = system: VX-2 tumor; assay: 5-FU rods plus radio-frequency ablation in VX-2 tumors in the liver of rabbits, tumor volume; assay type: in vivo, New Zealand white rabbits
Experimental: Male New Zealand white rabbits (−3 kg) were used and were cared for in accordance with the Case Western Reserve University animal research center regulations. The rabbits were anesthetized using a combination of xylazine (5 mg/kg body weight BW) and ketamine (50 mg/kg BW), acepromazine (2 mg/kg), and atropine (0.2 mg/kg) given by i.m. injection. The abdomen was shaved and cleaned with povidone-iodine solution (Betadine) and 0.5 ml of Marcaine was administered into the skin at the incision site. A small midline incision was made and the medial lobe of the liver was exposed and exteriorized. The capsule of the medial lobe was punctured with a scalpel blade and a small piece of VX-2 tumor (1 mm^3), which was propagated in another rabbit and stored in liquid nitrogen for later use, was inserted into the liver parenchyma. A small piece of fat was sutured over the implant site. The abdominal muscles were closed with suture and the skin was closed with subcutaneous hidden sutures. During the recovery period, all animals received buprenophrine (Buprenex, 0.5 mg/kg, i.m.), soon after surgery and once again 24 hrs later for pain. If the animals were later perceived to be in pain, additional buprenophrine was given as needed. The rabbits also received a subcutaneous injection of 25 ml of 0.9% saline during recovery and 24 hrs later.
Fourteen days after tumor implantation, the rabbits were anesthetized again using the protocol given above. The medial lobe of the liver was exteriorized and examined for tumor growth. The size of the tumor was approximately 0.5-1.0 cm in diameter and extended into the liver parenchyma. Before radio frequency ablation, a grounding pad was placed under the exteriorized medial lobe of the liver. […]
Tumor volumes after 28 days of growth, calculated from the digital photographs as well as the integration of the CT slices though the tumors of each rabbit, are given in the table below: […]

[7] = ablation + three 5-FU rods at day 14, after 28 days of growth, N = 4

| SMILES | time to release 75% of the 5-FU from implant ([1]; FBS) | time to release 75% of the 5-FU from implant ([1]; PBS) | spatial distribution in normal (unablated) liver [2] | concentration at 24 h ([3]; between 6 and 18 mm away from the ablation center) | concentration at 24 h ([3]; within 24 h, immediate vicinity of the ablation site (~6 mm radius)) | increase in body weight [4] | level in neoplastic tissue sufficient for a clinical effect [5] | reduction in tumor size ([6]; ablation + local sustained release 5-FU vs ablation only) | Tumor Volumes, mean (1 SD), CT Scan [6, 7] | Tumor Volumes, mean (1 SD), Digital Photography [6, 7] | spatial distribution in ablated liver ([3]; 5-FU rod in probe tract, 24 h and 48 h) |
| --- | --- | --- | --- | --- | --- | --- | --- | --- | --- | --- | --- |
| O=c1[nH]cc(F)c(=O)[nH]1 [5-FU, 5-fluorouracil] | 2 days | 9 days | essentially the same throughout the whole liver | ~12000 ng/g | ≤ 41000 ng/g | 2% | 0.05 µg/g | ~50% | 1.71 (0.56) cm^3 | 1.24 (0.55) cm^3 | – |
| O=c1[nH]c(=O)n([C@H]2C[C@H](O)[C@@H](CO)O2)cc1F [5-FUR, 5-floxuridine] | – | – | – | – | – | – | – | – | – | – | contains less 5-FUR than that further away from the ablation site |
